In patent publication US12077503B2, “Substituted cyclic amides and their use as herbicides” (FMC CORPORATION, priority 2015, dated 2024):

How the values were obtained:
Format in all cases: in vivo
[1] = system: ryegrass, Italian (Italian ryegrass, Lolium multiflorum); test: Test A preemergence; conditions: Lolium multiflorum, pre-emergence, 240 h, Preemergence; for pest or weed control at 31 g/ha: 31 g ai/ha, 0 to 100 scale where 0 is no effect and 100 is complete control, read-out: Ryegrass, Italian plant response rating; for pest or weed control at 125 g/ha: 125 g ai/ha, 0 to 100 scale (0 no effect, 100 complete control), read-out: Plant response rating, Ryegrass, Italian
Procedure, shortened: (§1)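 Visual injury scores from 0, no effect, to 100, complete control, were assigned versus untreated controls roughly 10 d after treatment in the greenhouse. Test chemicals, formulated with surfactant in a non-phytotoxic solvent, were applied to planted seeds as a preemergence soil spray or postemergence to one- to two-leaf plants 2 to 10 cm tall, in loam–sand soil.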

[2] = system: barnyardgrass (Echinochloa crus-galli); test: Test A preemergence; conditions: Echinochloa crus-galli, pre-emergence, 240 h, Preemergence; for pest or weed control at 31 g/ha: 31 g ai/ha, 0 to 100 scale where 0 is no effect and 100 is complete control, read-out: Barnyardgrass plant response rating; for pest or weed control at 125 g/ha: 125 g ai/ha, 0 to 100 scale (0 no effect, 100 complete control), read-out: Plant response rating, Barnyardgrass
Procedure, shortened: as §1

Kochia (Kochia scoparia) [3] = test: Test A preemergence; conditions: Bassia scoparia, pre-emergence, 240 h, Preemergence; for pest or weed control at 31 g/ha: 31 g ai/ha, 0 to 100 scale where 0 is no effect and 100 is complete control, read-out: Kochia plant response rating; for pest or weed control at 125 g/ha: 125 g ai/ha, 0 to 100 scale (0 no effect, 100 complete control), read-out: Plant response rating, Kochia
Procedure, shortened: as §1

[4] = system: giant foxtail (Setaria faberii); test: Test A preemergence; conditions: Setaria faberi, pre-emergence, 240 h, Preemergence; for pest or weed control at 31 g/ha: 31 g ai/ha, 0 to 100 scale where 0 is no effect and 100 is complete control, read-out: Foxtail, Giant plant response rating; for pest or weed control at 125 g/ha: 125 g ai/ha, 0 to 100 scale (0 no effect, 100 complete control), read-out: Plant response rating, Foxtail, Giant
Procedure, shortened: as §1

[5] = system: pigweed (Amaranthus retroflexus); test: Test A preemergence; conditions: Amaranthus retroflexus, pre-emergence, 240 h, Preemergence; for pest or weed control at 31 g/ha: 31 g ai/ha, 0 to 100 scale where 0 is no effect and 100 is complete control, read-out: Pigweed plant response rating; for pest or weed control at 125 g/ha: 125 g ai/ha, 0 to 100 scale (0 no effect, 100 complete control), read-out: Plant response rating, Pigweed
[6] = system: ragweed (common ragweed, Ambrosia elatior); test: Test A preemergence; conditions: Ambrosia artemisiifolia, pre-emergence, 240 h, Preemergence; for pest or weed control at 31 g/ha: 31 g ai/ha, 0 to 100 scale where 0 is no effect and 100 is complete control, read-out: Ragweed plant response rating; for pest or weed control at 125 g/ha: 125 g ai/ha, 0 to 100 scale (0 no effect, 100 complete control), read-out: Plant response rating, Ragweed
Procedure, shortened: as §1

[7] = system: ryegrass, Italian (Italian ryegrass, Lolium multiflorum); test: Test A postemergence; conditions: Lolium multiflorum, post-emergence, 240 h, Postemergence, read-out: Ryegrass, Italian plant response rating (0 to 100 scale); for pest or weed control at 125 g/ha: 125 g ai/ha, visual rating about 10 d after treatment; for pest or weed control at 31 g/ha: 31 g ai/ha, 0 is no effect, 100 is complete control
Procedure, shortened: as §1

[8] = system: barnyardgrass (Echinochloa crus-galli); test: Test A postemergence; conditions: Echinochloa crus-galli, post-emergence, 240 h, Postemergence; for pest or weed control at 125 g/ha: 125 g ai/ha, visual rating about 10 d after treatment, read-out: Barnyardgrass plant response rating (0 to 100 scale, 0 no effect, 100 complete control); for pest or weed control at 31 g/ha: 31 g ai/ha, 0 is no effect, 100 is complete control, read-out: Barnyardgrass plant response rating (0 to 100 scale)
Procedure, shortened: as §1

Kochia (Kochia scoparia) [9] = test: Test A postemergence; conditions: Bassia scoparia, post-emergence, 240 h, Postemergence, read-out: Kochia plant response rating (0 to 100 scale); for pest or weed control at 125 g/ha: 125 g ai/ha, visual rating about 10 d after treatment; for pest or weed control at 31 g/ha: 31 g ai/ha, 0 is no effect, 100 is complete control
Procedure, shortened: as §1

[10] = system: blackgrass (Alopecurus myosuroides); test: Test A postemergence; conditions: Alopecurus myosuroides, post-emergence, 240 h, Postemergence, read-out: Blackgrass plant response rating (0 to 100 scale); for pest or weed control at 125 g/ha: 125 g ai/ha, visual rating about 10 d after treatment; for pest or weed control at 31 g/ha: 31 g ai/ha, 0 is no effect, 100 is complete control
Procedure, shortened: as §1

[11] = system: giant foxtail (Setaria faberii); test: Test A postemergence; conditions: Setaria faberi, post-emergence, 240 h, Postemergence, read-out: Foxtail, Giant plant response rating (0 to 100 scale); for pest or weed control at 125 g/ha: 125 g ai/ha, visual rating about 10 d after treatment; for pest or weed control at 31 g/ha: 31 g ai/ha, 0 is no effect, 100 is complete control
Procedure, shortened: as §1

[12] = system: wheat (Triticum aestivum); test: Test A postemergence; conditions: Triticum aestivum, post-emergence, 240 h, Postemergence, read-out: Wheat plant response rating (0 to 100 scale); for plant injury at 125 g/ha: 125 g ai/ha, visual rating about 10 d after treatment; for plant injury at 31 g/ha: 31 g ai/ha, 0 is no effect, 100 is complete control
Procedure, shortened: as §1

[13] = system: pigweed (Amaranthus retroflexus); test: Test A postemergence; conditions: Amaranthus retroflexus, post-emergence, 240 h, Postemergence, read-out: Pigweed plant response rating (0 to 100 scale); for pest or weed control at 125 g/ha: 125 g ai/ha, visual rating about 10 d after treatment; for pest or weed control at 31 g/ha: 31 g ai/ha, 0 is no effect, 100 is complete control
Procedure, shortened: as §1

corn (Zea mays) = test: Test A postemergence; conditions: Zea mays, post-emergence, 240 h, Postemergence, read-out: Corn plant response rating (0 to 100 scale); for plant injury at 125 g/ha: 125 g ai/ha, visual rating about 10 d after treatment; for plant injury at 31 g/ha: 31 g ai/ha, 0 is no effect, 100 is complete control
Procedure, shortened: as §1

[14] = system: ragweed (common ragweed, Ambrosia elatior); test: Test A postemergence; conditions: Ambrosia artemisiifolia, post-emergence, 240 h, Postemergence, read-out: Ragweed plant response rating (0 to 100 scale); for pest or weed control at 125 g/ha: 125 g ai/ha, visual rating about 10 d after treatment; for pest or weed control at 31 g/ha: 31 g ai/ha, 0 is no effect, 100 is complete control
Procedure, shortened: as §1

[15] = system: Galium (catchweed bedstraw, Galium aparine); test: Test A postemergence; conditions: Galium, post-emergence, 240 h, Postemergence, read-out: Galium plant response rating (0 to 100 scale); for pest or weed control at 125 g/ha: 125 g ai/ha, visual rating about 10 d after treatment; for pest or weed control at 31 g/ha: 31 g ai/ha, 0 is no effect, 100 is complete control
Procedure, shortened: as §1

[16] = system: barnyardgrass (Echinochloa crus-galli); test: Test B flooded paddy test; conditions: Echinochloa crus-galli, 360 h, Flood, 250 g ai/ha; visually evaluated after 13 to 15 d; read-out: Plant response rating, Barnyardgrass (0 to 100 scale where 0 is no effect and 100 is complete control)
Procedure, shortened: (§2)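 Percent control, visually estimated after 13–15 d in the greenhouse on a 0–100 basis, compares treated pots with untreated ones; compound was put into paddy water 3 cm above the soil when plants had two leaves.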

rice (Oryra sativa) = test: Test B flooded paddy test; conditions: Oryza sativa, 360 h, Flood, 250 g ai/ha; visually evaluated after 13 to 15 d; read-out: Plant response rating, Rice (0 to 100 scale where 0 is no effect and 100 is complete control)
Procedure, shortened: as §2

[17] = system: ducksalad (Heteranthera limosa); test: Test B flooded paddy test; conditions: Heteranthera limosa, 360 h, Flood, 250 g ai/ha; visually evaluated after 13 to 15 d; read-out: Plant response rating, Ducksalad (0 to 100 scale where 0 is no effect and 100 is complete control)
Procedure, shortened: as §2

[18] = system: sedge, umbrella (small-flower umbrella sedge, Cyperus difformis); test: Test B flooded paddy test; conditions: Cyperus difformis, 360 h, Flood, 250 g ai/ha; visually evaluated after 13 to 15 d; read-out: Plant response rating, Sedge, Umbrella (0 to 100 scale where 0 is no effect and 100 is complete control)
Procedure, shortened: as §2

Row | SMILES | pest or weed control at 31 g/ha [1] | pest or weed control at 125 g/ha [1] | pest or weed control at 31 g/ha [2] | pest or weed control at 125 g/ha [2] | pest or weed control at 31 g/ha (Kochia (Kochia scoparia) [3]) | pest or weed control at 125 g/ha (Kochia (Kochia scoparia) [3]) | pest or weed control at 31 g/ha [4] | pest or weed control at 125 g/ha [4] | pest or weed control at 31 g/ha [5] | pest or weed control at 125 g/ha [5] | pest or weed control at 31 g/ha [6] | pest or weed control at 125 g/ha [6] | pest or weed control at 125 g/ha [7] | pest or weed control at 31 g/ha [7] | pest or weed control at 125 g/ha [8] | pest or weed control at 31 g/ha [8] | pest or weed control at 125 g/ha (Kochia (Kochia scoparia) [9]) | pest or weed control at 31 g/ha (Kochia (Kochia scoparia) [9]) | pest or weed control at 125 g/ha [10] | pest or weed control at 31 g/ha [10] | further results
1 | CC(C)Oc1ccc([C@H]2CN(C)C(=O)[C@@H]2C(=O)Nc2ccccc2F)cc1F [Compound 1333] | 0% | 0% | 40% | 70% | 0% | 30% | 90% | 90% | 0% | 0% | 0% | 0% | 0% | 0% | 70% | 0% | 0% | 0% | 0% | 0% | pest or weed control at 125 g/ha [11]: 60%; pest or weed control at 31 g/ha [11]: 0%; plant injury at 125 g/ha [12]: 0%; plant injury at 31 g/ha [12]: 0%; pest or weed control at 125 g/ha [13]: 10%; pest or weed control at 31 g/ha [13]: 0%; plant injury at 125 g/ha (corn (Zea mays)): 0%; plant injury at 31 g/ha (corn (Zea mays)): 0%; pest or weed control at 125 g/ha [14]: 0%; pest or weed control at 31 g/ha [14]: 0%; pest or weed control at 125 g/ha [15]: 0%; pest or weed control at 31 g/ha [15]: 0%; pest or weed control at 250 g/ha [16]: 45%; pest or weed control at 250 g/ha (rice (Oryra sativa)): 20%; pest or weed control at 250 g/ha [17]: 80%; pest or weed control at 250 g/ha [18]: 70%
2 | COc1c([C@H]2CN(C)C(=O)[C@@H]2C(=O)Nc2cccc(F)c2F)cccc1C(F)(F)F [Compound 1339] | 0% | 20% | 90% | 90% | 0% | 50% | 80% | 90% | 0% | 0% | 0% | 0% | 0% | 0% | 90% | 70% | 20% | 0% | 0% | 0% | pest or weed control at 125 g/ha [11]: 80%; pest or weed control at 31 g/ha [11]: 70%; plant injury at 125 g/ha [12]: 0%; plant injury at 31 g/ha [12]: 0%; pest or weed control at 125 g/ha [13]: 30%; pest or weed control at 31 g/ha [13]: 20%; plant injury at 125 g/ha (corn (Zea mays)): 0%; plant injury at 31 g/ha (corn (Zea mays)): 0%; pest or weed control at 125 g/ha [14]: 20%; pest or weed control at 31 g/ha [14]: 0%; pest or weed control at 125 g/ha [15]: 50%; pest or weed control at 31 g/ha [15]: 30%; pest or weed control at 250 g/ha [16]: 95%; pest or weed control at 250 g/ha (rice (Oryra sativa)): 60%; pest or weed control at 250 g/ha [17]: 100%; pest or weed control at 250 g/ha [18]: 0%
